For one assay, the system named is MRSA strains. In words: MIC, synergistic activity with Ertapenem (4 μg/ml). Particulars: S. aureus COL with 4 μg/ml Ertapenem (synergistic activity). It is filed as cell-based, S. aureus. As for the experimental part:
(§1) Peptides Chain 104, Chain 105, Chain 201, Chain 308, Chain 310 were tested against antibiotic-sensitive strains of S. aureus RN4220 and methicillin resistant strains of S. aureus COL (MRSA). Chain peptides comprising of either L- or D-form amino acids were tested against these bacteria, and the D-form peptides were found have better activity compared to L-form (Table 6). Synergistic activity of chain peptides along with Ertapenem (4 μg/ml) was tested to know whether it will influence the activity against MRSA strains. […] Chain 310 has the best antibacterial activity against the MRSA strains with a MIC of 0.06 & 0.03 μg/ml along with Ertapenem (4 μg/ml) for both forms of L and D-peptides (Table 6).

A further assay relates to S. aureus RN4220. Format: cell-based. Particulars: antibiotic sensitive strain S. aureus RN4220. As for the experimental part:
Minimum inhibition concetrations (MICs) were determined against Escherichia coli (ATCC 25922), Staphylococcus aureus (ATCC 25923), Klebsiella pneumoniae (ATCC 10031) and Pseudomonas aeruginosa (ATCC 27853). Also clinical strains of E. coli, K. pneumoniae, E. cloacae, P. aeruginosa, Serratia marcescens, Proteus mirabilis, S. pneumoniae, Acinetobacter baumannii, A. johnsonii and S. aureus were used for MICs assays. Additionally, clinical strains of yeast including Candida albicans, C. glabrata, C. parapsilosis and C. quillermondiae were used. The susceptibility of these microorganisms to Chain peptides were determined using micro broth dilution assay. Colonies of the respective microorganism from Muller Hinton (MH) agar plates incubated overnight were suspended in MH broth media and final concentration of microorganism was adjusted to 5.0×10^5 cfu/ml. An aliquot of 10 μl of each Chain peptide, or gentamicin, tetracycline as reference antibiotics were added in differing concentrations along with 90 μl of bacterial suspension to 96 well polypropylene plates and incubated at 37° C. for 20 to 24 hours. Concentrations of Chain peptides and reference antibiotics ranged from 0.125 to 128 μg/ml and the MICs were recorded as the lowest concentration with no visual growth of bacteria. Similarly, antifungal MICs were tested in Potato dextrose broth.
as §1

Assay [1] concerns clinical strains of E. cloacae. The assay is described as follows: MIC, microdilution, clinical strains. It is filed as cell-based. Particulars: 0.02% BSA, 0.2% acetic acid. The method in brief: (§2)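 Broth microdilution with inocula adjusted to 5.0×10^5 cfu/ml; peptides tested at 0.125 to 128 μg/ml and incubated at 37° C for 20 to 24 hours. Bacteria were grown in Mueller Hinton broth, yeasts in potato dextrose broth. MIC was the lowest concentration showing no visible growth.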
A general note: In broth dilution the organism is exposed to a series of concentrations in liquid medium.

The subject of assay [2] is clinical strains of P. aeruginosa. The assay is described as follows: MIC, microdilution, clinical strains. Format: cell-based. To be noted: 0.02% BSA, 0.2% acetic acid. The method, boiled down: as §2
The subject of assay [3] is clinical strains of Serratia marcescens. The assay is described as follows: MIC, microdilution, clinical strains. Format: cell-based. Particulars: 0.02% BSA, 0.2% acetic acid. The method in brief:
as §2

In assay [4] the test system is clinical strains of S. aureus. The assay is described as follows: MIC, microdilution, clinical strains. Format: cell-based. Particulars: 0.02% BSA, 0.2% acetic acid. The method, boiled down: as §2
The test system of assay [5] is clinical strains of E. coli. In words: MIC, microdilution, clinical strains. It is filed as cell-based. To be noted: microdilution, Muller Hinton broth-cation adjusted, 0.02% BSA, 0.2% acetic acid. The method in brief: as §2
Assay [6] concerns clinical strains of K. pneumoniae. The assay is described as follows: MIC, microdilution, clinical strains. Format: cell-based. To be noted: 0.02% BSA, 0.2% acetic acid. The method, boiled down: as §2
The test system of assay [7] is clinical strains of S. pneumoniae. In words: MIC, microdilution, clinical strains. To be noted: 0.02% BSA, 0.2% acetic acid. Format: cell-based. The method, boiled down: as §2
Assay [8] relates to clinical strains of Proteus mirabilis. The assay is described as follows: MIC, microdilution, clinical strains. It is filed as cell-based. To be noted: 0.02% BSA, 0.2% acetic acid. The method, boiled down: as §2
For the next assay, the system named is C. parapsilosis. In words: MIC, clinical yeast strains. Format: cell-based. The method, boiled down:
(§3)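 Overnight MH agar colonies were suspended in MH broth to 5.0×10^5 cfu/ml, mixed with serial peptide dilutions (0.125–128 μg/ml) and incubated at 37° C for 20 to 24 hours. Yeast MICs were run the same way in potato dextrose broth, and wells were scored visually.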

The next assay concerns Candida albicans. In words: MIC, clinical yeast strains. Format: cell-based. The method, boiled down: as §3
The test system of the next assay is C. glabrata. The assay is described as follows: MIC, clinical yeast strains. Format: cell-based. The method in brief: as §3
In the next assay the test system is C. quillermondiae. The assay is described as follows: MIC, clinical yeast strains. It is filed as cell-based. Set-up: Minimum inhibitory concentration: unit: μg/ml. To be noted: C. quillermondiae clinical yeast strain 1. The method, boiled down:
as §3

Where a SMILES comes first, the peptide text is derived from it. [ ]: non-standard residue; d: D form. A value given as a limit tells only on which side of the number the result lay.

With `CC[C@@H](C)[C@@H](NC(=O)[C@@H](CCSC)NC(=O)[C@@H](C)NC(=O)[C@@H](CCCNC(=N)N)NC(=O)[C@@H](Cc1c[nH]c2ccccc12)NC(=O)[C@@H](CCCCN)NC(=O)[C@H](N)CCCNC(=N)N)C(=O)N[C@H](CCCNC(=N)N)C(=O)N[C@H](CC(C)C)C(=O)N[C@H](Cc1c[nH]cn1)C(=O)N[C@H](C)C(=O)N[C@H](CCCCN)C(=O)N[C@H](CCCNC(=N)N)C(=O)N[C@H](CC(C)C)C(=O)N[C@H](CCCNC(=N)N)C(=O)N[C@H](CCCCN)C(=O)O` [104 D] (H-[dR][dK][dW][dR][dA][dM][dI][dR][dL][dH][dA][dK][dR][dL][dR][dK]-OH), the “Minimum inhibitory concentration (MICs), S. aureus COL + 4 μg/ml Ertapenem” value in the assay on MRSA strains turned out to be 4 µg/mL. For the same compound, the “Minimum inhibitory concentration (MICs), S. aureus RN4220” value with S. aureus RN4220 came to 64 µg/mL.
As for `CC[C@@H](C)[C@@H](NC(=O)[C@@H](CCSC)NC(=O)[C@@H](C)NC(=O)[C@@H](CCCNC(=N)N)NC(=O)[C@@H](Cc1c[nH]c2ccccc12)NC(=O)[C@@H](CCCCN)NC(=O)[C@H](N)CCCNC(=N)N)C(=O)N[C@H](CCCNC(=N)N)C(=O)N[C@H](CC(C)C)C(=O)N[C@H](Cc1c[nH]cn1)C(=O)N[C@H](C)C(=O)N[C@H](CCCCN)C(=O)N[C@H](Cc1c[nH]c2ccccc12)C(=O)N[C@H](CC(C)C)C(=O)N[C@H](CCCNC(=N)N)C(=O)N[C@H](CCCCN)C(=O)O` [105 D] (H-[dR][dK][dW][dR][dA][dM][dI][dR][dL][dH][dA][dK][dW][dL][dR][dK]-OH), the “Minimum inhibitory concentration (MICs), S. aureus COL + 4 μg/ml Ertapenem” value in the assay on MRSA strains is 2 µg/mL. Moreover, the “Minimum inhibitory concentration (MICs), S. aureus RN4220” value in the assay on S. aureus RN4220 was 16 µg/mL.
With `CC(C)C[C@@H](NC(=O)[C@H](N)CCCCN)C(=O)N[C@H](CCCCN)C(=O)N[C@H](Cc1c[nH]c2ccccc12)C(=O)N[C@H](Cc1ccccc1)C(=O)N[C@H](Cc1c[nH]c2ccccc12)C(=O)N[C@H](CC(C)C)C(=O)N[C@H](Cc1ccccc1)C(=O)N[C@H](CCCCN)C(=O)N[C@H](CCCCN)C(=O)N[C@H](CCCNC(=N)N)C(=O)O` [Chain311D] (H-[dK][dL][dK][dW][dF][dW][dL][dF][dK][dK][dR]-OH), the Minimum inhibitory concentration in assay [1] (Enterobacter cloacae strain 1, Muller Hinton broth-cation adjusted) is 4; in assay [1] (Enterobacter cloacae strain 2, Muller Hinton broth-cation adjusted), 4; in assay [1] (Enterobacter cloacae strain 3, Muller Hinton broth-cation adjusted) it was 4; in assay [1] (Enterobacter cloacae strain 4, Muller Hinton broth-cation adjusted) it was 4; in assay [1] (Enterobacter cloacae strain 5, Muller Hinton broth-cation adjusted) it was 2; in assay [2] (Pseudomonas aeruginosa strain 1, Muller Hinton broth-cation adjusted), 16. The Minimum inhibitory concentration is listed as 8 in [2] (Pseudomonas aeruginosa strain 2, Muller Hinton broth-cation adjusted); 16 in [2] (Pseudomonas aeruginosa strain 3, Muller Hinton broth-cation adjusted); 8 in [2] (Pseudomonas aeruginosa strain 4, Muller Hinton broth-cation adjusted); 4 in assay [2] (Pseudomonas aeruginosa strain 5, Muller Hinton broth-cation adjusted); >128 in [3] (Serratia marcescens strain 1, Muller Hinton broth-cation adjusted); >128 in assay [3] (Serratia marcescens strain 2, Muller Hinton broth-cation adjusted). In addition, the Minimum inhibitory concentration in [3] (Serratia marcescens strain 3, Muller Hinton broth-cation adjusted) is >128; in [3] (Serratia marcescens strain 4, Muller Hinton broth-cation adjusted) it was >128; in assay [3] (Serratia marcescens strain 5, Muller Hinton broth-cation adjusted), >128; in assay [4] (Staphylococcus aureus strain 1, Muller Hinton broth-cation adjusted), 1; in assay [4] (Staphylococcus aureus strain 2, Muller Hinton broth-cation adjusted), 1; in assay [4] (Staphylococcus aureus strain 3, Muller Hinton broth-cation adjusted) it was 1. In addition, the Minimum inhibitory concentration in [4] (Staphylococcus aureus strain 4, Muller Hinton broth-cation adjusted) was determined as 1; in assay [4] (Staphylococcus aureus strain 5, Muller Hinton broth-cation adjusted), 1; in [5] (Escherichia coli strain 1), 2; in [5] (Escherichia coli strain 2), 2; in [5] (Escherichia coli strain 3), 1; in assay [5] (Escherichia coli strain 4) it was 0.5. The Minimum inhibitory concentration in assay [5] (Escherichia coli strain 5) was 1; in [6] (Klebsiella pneumoniae strain 1, Muller Hinton broth-cation adjusted) it was 8; in [6] (Klebsiella pneumoniae strain 2, Muller Hinton broth-cation adjusted) it was 8; in assay [6] (Klebsiella pneumoniae strain 3, Muller Hinton broth-cation adjusted), 4; in [6] (Klebsiella pneumoniae strain 4, Muller Hinton broth-cation adjusted) it was 8; in assay [6] (Klebsiella pneumoniae strain 5, Muller Hinton broth-cation adjusted), 4. In addition, the Minimum inhibitory concentration is recorded as 16 in assay [7] (Streptococcus pneumoniae strain 1, Muller Hinton broth-cation adjusted); 8 in [7] (Streptococcus pneumoniae strain 2, Muller Hinton broth-cation adjusted); 16 in assay [7] (Streptococcus pneumoniae strain 3, Muller Hinton broth-cation adjusted); 4 in assay [7] (Streptococcus pneumoniae strain 4, Muller Hinton broth-cation adjusted); 8 in [7] (Streptococcus pneumoniae strain 5, Muller Hinton broth-cation adjusted); >128 in assay [8] (Proteus mirabilis strain 1, Muller Hinton broth-cation adjusted). Also, the Minimum inhibitory concentration in assay [8] (Proteus mirabilis strain 2, Muller Hinton broth-cation adjusted) is reported as 128; in assay [8] (Proteus mirabilis strain 3, Muller Hinton broth-cation adjusted), 128; in [8] (Proteus mirabilis strain 4, Muller Hinton broth-cation adjusted), >128; in [8] (Proteus mirabilis strain 5, Muller Hinton broth-cation adjusted), >128; in the assay with C. parapsilosis (C. parapsilosis clinical yeast strain 1), 16; in the assay on C. parapsilosis (C. parapsilosis clinical yeast strain 2) it was 8. The Minimum inhibitory concentration in the assay on C. parapsilosis (C. parapsilosis clinical yeast strain 3) is reported as 8; in the assay on C. parapsilosis (C. parapsilosis clinical yeast strain 4) it was 8; with Candida albicans (Candida albicans clinical yeast strain 1), 8; in the assay with Candida albicans (Candida albicans clinical yeast strain 2) it was 8; with Candida albicans (Candida albicans clinical yeast strain 3), 8; in the assay with Candida albicans (Candida albicans clinical yeast strain 4) it was 16. The Minimum inhibitory concentration in the assay with Candida albicans (Candida albicans clinical yeast strain 5) is recorded as 16; with C. glabrata (C. glabrata clinical yeast strain 1), 16; in the assay on C. glabrata (C. glabrata clinical yeast strain 2), 16; in the assay with C. glabrata (C. glabrata clinical yeast strain 3) it was 8; with C. glabrata (C. glabrata clinical yeast strain 4) it was 64; in the assay with C. quillermondiae, 4.

The values are drawn from US10457710B2, “Antimicrobial peptides, their variants and uses” (priority 2015, dated 2019).
